Measured values reported in patent publication US12650432B2, “SCARA5 and DIO2 as biomarkers for miscarriage and implantation failure” (The University of Warwick, priority 2019, dated 2026).
Values joined by “and” are separate entries in the source; they are usually repeats but may differ in a detail not shown here. Identical values can stand only once. Marks after values point to notes of the source that are not given here.

Key:
[1] = tested on: endometrial stromal cells (EnSC); assay: Colony-forming unit (CFU) assay on EnSC from paired endometrial biopsies, randomised placebo-controlled trial in RPL patients; assay type: in vivo, human
Excerpt: Participants were recruited from a tertiary recurrent miscarriage clinic at UHCW NHS Trust. […] Participants agreed to actively avoid pregnancy and use barrier contraception for the duration of the trial.
Participants were instructed to take the capsules once daily from the day of the baseline biopsy for 3 menstrual cycles until the second biopsy was taken. The control group were allocated identical placebo capsules also supplied by Sharp Clinical Services and instructed to take these exactly as the intervention group.
(§1) Following written informed consent, participants were given a digital home ovulation test kit (Clearblue, Geneva, Switzerland), an emergency contact card, and barrier contraception. Participants then attended the clinic 7-10 days after the luteinizing hormone (LH) surge (LH+7-10). Following a negative urine pregnancy test, a transvaginal pelvic ultrasound scan was performed. Endometrial thickness was defined as the maximal endometrium diameter measured in a mid-sagittal plane. Next, an endometrial biopsy was obtained using a Wallach Endocell® endometrial sampler. The sample, designated ‘baseline biopsy’, was immediately portioned with one part stored in RNALater Stabilization Solution (Sigma-Aldrich, Dorset, UK) one part snap frozen in liquid nitrogen, one part fixed in 10% formalin for immunohistochemistry, and the remainder placed in 10% DMEM/F12 for isolation of primary endometrial stromal cells (see below). Following randomisation (see below), trial medication was provided and all participants attended two follow-up clinics at 4 weeks±4 day intervals. At these follow-up visits a urine pregnancy test was carried out, symptom diaries were reviewed, adverse events reported, and willingness for continued participation confirmed. At the second follow-up visit, participants were provided with another home ovulation test kit. In the third cycle, participants attended the clinic on LH+7-10 for a repeat transvaginal ultrasound scan with measurement of endometrial thickness and endometrial biopsy. The sample, designated ‘second biopsy’, was processed identically to the baseline biopsy. Trial medication was stopped on the day of the second biopsy.
Primary EnSC were isolated according to our published protocol (65). Briefly, samples were washed in DMEM/F-12 medium (Invitrogen), finely minced and enzymatically digested with 0.5 mg/ml collagenase (Sigma-Aldrich) and 0.1 mg/ml deoxyribonuclease type I (Roche, Burgess Hill, UK) for 1 hour in 5% CO2 at 37° C. Stromal and epithelial fractions were separated and cryopreserved in 10% DMSO in dextran-coated charcoal-stripped fetal bovine serum (DCC; 2 ml per vial; Invitrogen), with the stromal fraction split into two or three vials depending on the biopsy size. After controlled cooling at −80° C. overnight, samples were transferred to liquid nitrogen for storage.
All CFU assays were conducted in batches, consisting of paired primary endometrial stromal cells isolated from baseline and second biopsies from 3 or 4 participants. CFU assays were established as described previously (66). Briefly, cryopreserved stromal cells were thawed for 3 minutes at 37° C. and then transferred immediately into pre-warmed growth medium (DMEM-F12 medium containing 10% DCC supplemented with 1% L-Glutamine and 1% antibiotic-antimycotic mix; Invitrogen). Cells were pelleted by centrifugation at 276×g for 5 minutes, supernatant was aspirated and cells were resuspended in 10 ml growth medium. Viable stromal cells were counted in trypan blue on a Neubauer Improved haemocytometer and seeded at clonal density (53 cells/cm2) onto fibronectin-coated 6-well plates (10 μg/ml in PBS; Sigma-Aldrich) in growth medium supplemented with […] basic fibroblast growth factor (Sigma Aldrich). Three wells, containing 500 cells each, were seeded per biopsy. Plates were cultured in 5% CO2 at 37° C., and left undisturbed for 3 days after which growth was monitored to ensure colonies arose from single cells.

PRL = assay: RT-qPCR of PRL transcript in paired endometrial biopsies; assay type: in vivo, human; conditions: second vs baseline biopsy, oral 100 mg daily for 3 cycles, n=16
Procedure: (§2) RNA was extracted from RNAlater preserved tissue using the RNeasy Lipid Tissue Mini Kit (QIAGEN, Manchester, UK), with on-column DNase treatment, according to the manufacturer's instructions. RNA was assessed using a Nanodrop ND-1000 spectrophotometer and 1 μg RNA used for reverse transcription, performed using the Quantitect Reverse Transcription Kit (QIAGEN) according to manufacturer's instructions. Thermal cycling was performed on a QuantStudio 5 Real-Time PCR System (ThermoFisher, Paisley, UK), using PrecisionPlus 2× Mastermix (Primer Design, Southampton, UK), 300 nM each forward and reverse primers and 1 μl cDNA. L19 was used as a reference gene and data were analysed using the Pfaffl method (68).
(§3) Induction of PRL and IGFBP1 expression is widely used to monitor the decidual response in cultured EnSC (14).

IGFBP1 = assay: RT-qPCR of IGFBP1 transcript in paired endometrial biopsies; assay type: in vivo, human; conditions: second vs baseline biopsy, oral 100 mg daily for 3 cycles, n=16
Procedure: as §2, §3

DIO2 = assay: RT-qPCR of DIO2 mRNA (senescent decidual cell marker) in paired endometrial biopsies; assay type: in vivo, human
Procedure: as §2, §3

SCARA5 = assay: RT-qPCR of SCARA5 mRNA (decidual cell marker) in paired endometrial biopsies; assay type: in vivo, human; conditions: second vs baseline biopsy, oral 100 mg daily for 3 cycles, n=16
Procedure: as §2, §3

[2] = Adverse events and side effects in trial participants; assay type: in vivo, human
Procedure: as §1
(§4) Participants were provided with compliance and symptom diaries at each visit. Diaries were assessed at every follow-up or biopsy visit. Acceptability and satisfaction of the study was assessed with a Likert scale-based questionnaire completed by participants after their final visit. Participants who conceived after completion of the study were requested to contact the trial team and outcome of the first pregnancy within one year of study completion was recorded.

[3] = Outcome of first pregnancy within 12 months after study completion; assay type: in vivo, human; conditions: sitagliptin group
Procedure: as §4

[4] = granulocyte-CSF-dependent mobilisation of BMDC followed by sitagliptin 100 mg for 28 days; cited from earlier work
[5] = tested on: haematopoietic stem and progenitor cells; conditions: up to 600 mg twice daily, after umbilical cord blood transplantation; cited from earlier work
[6] = sitagliptin group (n = 16), baseline biopsy before treatment

For `N[C@@H](CC(=O)N1CCn2c(nnc2C(F)(F)F)C1)Cc1cc(F)c(F)cc1F` [sitagliptin], which “Second biopsy CFU count, Median (IQR, Range)” value ([1]; RPL patients, oral 100 mg once daily for 3 menstrual cycles) is on record?
Its value is 14.0 (8.0-29.0, 3-145)^‡ per 1500 EnSC.

What about the “Median increase in CFU count, second compared to baseline biopsy” value ([1]; after 3 cycles of sitagliptin) of the same compound?
Its value is “+7 per 1500 EnSC”.

What about the “Mean CFU count in second biopsy higher than placebo group, adjusted for baseline CFU count” value ([1]; after 3 cycles, oral 100 mg daily) of the same compound?
The value was 51%.

And the “Mean CFU count, second biopsy” value ([1]; all data, RPL patients, oral 100 mg once daily for 3 menstrual cycles)?
The value was 27.67 per 1500 EnSC.

And the “Mean CFU count, second biopsy” value ([1]; all data, RPL patients, oral 100 mg once daily for 3 menstrual cycles, listed as Sitagliptin)?
The value was 27.7 (35.8) per 1500 EnSC and 27.7 per 1500 EnSC.

What about the “Average increase in CFU counts compared to baseline biopsy” value ([1]; sitagliptin given for 3 menstrual cycles) of the same compound?
Its value is 68%.

What about the “Baseline CFU count, Mean (SD)” value [1, 6] of the same compound?
The value was 16.1 (19.6) per 1500 EnSC.

And the “Baseline CFU count, Median (IQR, Range)” value [1, 6]?
Its value is 8.5 (4.5-17.8, 1-74) per 1500 EnSC.

And the “Mean CFU count, second biopsy” value ([1]; subgroup excluding women with outlying CFU counts (>20 colonies per 1500 cells), after 3 cycles)?
Its value is 14.42 per 1500 EnSC.

What about the “PRL transcript level normalized to L19” value (PRL) of the same compound?
Its value is “not significantly different”.

And the “IGFBP1 transcript level normalized to L19” value (IGFBP1)?
Its value is “not significantly different”.

What about the “DIO2 mRNA level, median, second biopsy” value (DIO2; after 3 cycles oral 100 mg daily, n=16, normalized to L19, P=0.0182 vs baseline) of the same compound?
The value was 3.86 a.u.

What about the “DIO2 mRNA level, median, baseline biopsy” value (DIO2; sitagliptin group before treatment, n=16, normalized to L19) of the same compound?
The value was 5.09 a.u.

What about the “SCARA5 mRNA level normalized to L19” value (SCARA5) of the same compound?
The value was “not altered significantly”.

And the “Adverse events, overall statement” value ([2]; pre-pregnancy sitagliptin treatment in RPL patients)?
Its value is “no adverse events were reported”.

What about the “Chills, events” value ([2]; sitagliptin group n = 19) of the same compound?
Its value is 1.

What about the “Diarrhoea, events” value ([2]; sitagliptin group n = 19) of the same compound?
The value was 0.

And the “Dizziness, events” value ([2]; sitagliptin group n = 19)?
Its value is 2.

And the “Dizziness, participants” value ([2]; sitagliptin group n = 19)?
Its value is 1.

And the “Dry Nose, events” value ([2]; sitagliptin group n = 19)?
The value was 0.

And the “Dry mouth, events” value ([2]; sitagliptin group n = 19)?
The value was 1.

And the “Headache, events” value ([2]; sitagliptin group n = 19)?
Its value is 10.

What about the “Headache, participants” value ([2]; sitagliptin group n = 19) of the same compound?
The value was 4.

What about the “Low Mood, events” value ([2]; sitagliptin group n = 19) of the same compound?
Its value is 1.

And the “Mouth ulcers, events” value ([2]; sitagliptin group n = 19)?
Its value is 0.

And the “Myalgia, events” value ([2]; sitagliptin group n = 19)?
Its value is 1.

And the “Nausea, events” value ([2]; sitagliptin group n = 19)?
Its value is 1.

And the “Night sweats, events” value ([2]; sitagliptin group n = 19)?
Its value is 1.

And the “Nose bleed, events” value ([2]; sitagliptin group n = 19)?
The value was 0.

And the “Rash, events” value ([2]; sitagliptin group n = 19)?
The value was 0.

And the “Sore Throat, events” value ([2]; sitagliptin group n = 19)?
The value was 1.

What about the “Stuffy Nose, events” value ([2]; sitagliptin group n = 19) of the same compound?
The value was 0.

And the “Thinning of hair, events” value ([2]; sitagliptin group n = 19)?
Its value is 0.

What about the “Thirst, events” value ([2]; sitagliptin group n = 19) of the same compound?
Its value is 1.

And the “UTI, events” value ([2]; sitagliptin group n = 19)?
Its value is 1.

And the “Termination of pregnancy at 16 weeks for a fetal abnormality” value [3]?
Its value is “one”.

And the Live births ([3]; 12 pregnancies)?
The Live births was 8.

And the “Spontaneous pregnancy losses before 12 weeks of gestation” value ([3]; 12 pregnancies)?
Its value is 3.

And the Cardiac function [4]?
The Cardiac function was “failed to improve cardiac function”.

What about the “Engraftment of haematopoietic stem and progenitor cells in bone marrow” value [5] of the same compound?
The value was “improve engraftment of haematopoietic stem and progenitor cells in bone marrow”.
